# According to patent US9226913B2, “Methods of treating cancer using a combination of an immunomodulatory compound and an artemisinin or a derivative thereof” (Celgene Corporation, priority 2010, dated 2016):
# Experiments:
# MJT3 cells = assay: MTT proliferation assay, 72 hr (Example 6.1); format: cell-based, human; conditions: for IC50: Homo sapiens, MJT3 (melanoma), 72 hours treatment, MTT, mean ± SD of at least 3 experiments
# Procedure: (§1) The human cancer cell lines; MCF7 (breast), HCT116 and SW480 (colon) (Cancer Research UK, London, UK), KM and MJT3 (melanoma) (in house), PANC1 and MIAPaCa (pancreas) (European Collection of Cell Cultures, Salisbury, UK) were grown in either DMEM (Sigma) or RPMI (Sigma) media supplemented with 10% foetal bovine serum, 2 mM L-glutamine, 1% penicillin/streptomycin.
# (§2) To study the effect of ATM and ART on cell growth, cells growing exponentially were added to 96-well plates at a density of 3×10^4/well. Drugs (0.1-100 μM) were then added to the wells, ensuring an equal volume of 200 μL across the plate. Cell number/proliferation was measured at 72 hr using a standard methylthiazoletetrazolium (MTT)-based assay without modifications. Briefly, MTT (Sigma) was added to each well to give a working concentration of 0.4 mg/ml, and plates returned to the incubator for a further 1 hr. After this time, the medium was aspirated off, 200 μL of DMSO was then added to each well, and plates agitated gently for 5 min before measuring optical density at 540 nm in each well.
# SW480 cells [1] = assay: MTT proliferation assay, 72 hr (Example 6.1); format: cell-based, human; conditions: for IC50: Homo sapiens, SW480 (colon), 72 hours treatment, MTT, mean ± SD of at least 3 experiments
# Procedure: as §1, §2
# MCF7 cells [2] = assay: MTT proliferation assay, 72 hr (Example 6.1); format: cell-based, human; conditions: for IC50: MCF7 (breast), 72 hours treatment, MTT, mean ± SD of at least 3 experiments
# Procedure: as §1, §2
# HCT116 cells [3] = assay: MTT proliferation assay, 72 hr (Example 6.1); format: cell-based, human; conditions: for IC50: Homo sapiens, HCT-116, HCT116 (colon), 72 hours treatment, MTT, mean ± SD of at least 3 experiments
# Procedure: as §1, §2
# KM cells = assay: MTT proliferation assay, 72 hr (Example 6.1); format: cell-based; conditions: Homo sapiens, KM (melanoma), 72 hours treatment, mean ± SD of at least 3 experiments
# Procedure: as §1, §2
# MiaPaCa3 cells = assay: MTT proliferation assay, 72 hr (Example 6.1); format: cell-based; conditions: Homo sapiens, MiaPaCa3 (pancreas), 72 hours treatment, mean ± SD of at least 3 experiments
# Procedure: as §1, §2
# PANC1 cells = assay: MTT proliferation assay, 72 hr (Example 6.1); format: cell-based, human; conditions: for IC50: Homo sapiens, PANC-1, PANC1 (pancreas), 72 hours treatment, MTT, mean ± SD of at least 3 experiments
# Procedure: as §1
# as §2, with “Drugs (0.1-100 μM) were then added to the wells, ensuring an equal volume of 200 μL across the plate.” left out
# A549 cells = assay: MTT proliferation assay, 72 hr (Example 6.2); format: cell-based, human; conditions: Homo sapiens, A549, 72 h, mean ± SD of at least five experiments
# Procedure: (§3) The human cancer cell lines; MCF7 (breast), HCT116 (colon) and A549 (lung) (Cancer Research UK, London, UK), were grown in either DMEM (Sigma) or RPMI (Sigma) media supplemented with 10% foetal bovine serum, 2 mM L-glutamine, 1% penicillin/streptomycin.
# as §2, with “each agent” for “ATM and ART”, “μl” for “μL”, “number” for “number/proliferation”, “modifications as described previously (Gordi et al., 2004, Toxicol. Lett. 147: 99-107).” for “modifications.”
# MCF7 cells [4] = assay: MTT proliferation assay, 72 hr (Example 6.2); format: cell-based, human; conditions: Homo sapiens, MCF7, 72 h, mean ± SD of at least five experiments
# Procedure: as §3
# as §2, with “each agent” for “ATM and ART”, “μl” for “μL”, “number” for “number/proliferation”, “modifications as described previously (Gordi et al., 2004, Toxicol. Lett. 147: 99-107).” for “modifications.”
# HCT116^norm cells = assay: MTT proliferation assay, 72 hr (Example 6.2); format: cell-based, human; conditions: Homo sapiens, 72 h, MTT, mean ± SD of at least five experiments, read-out: IC50
# Procedure: as §3
# as §2, with “each agent” for “ATM and ART”, “μl” for “μL”, “number” for “number/proliferation”, “modifications as described previously (Gordi et al., 2004, Toxicol. Lett. 147: 99-107).” for “modifications.”
# cyclin B = assay: Immunoblotting analysis (Example 6.2); format: cell-based, human
# Procedure: (§4) Cells were harvested and total cellular protein was solubilised in lysis buffer (New England Biolabs, Hitchin, UK) and resolved by Tris-glycine electrophoresis using a 4-12% bis-tris gradient-gel. Following transfer of proteins to 0.45 μm nitrocellulose membranes, blocking was performed in 5% (w/v) non-fat milk in TTBS [0.5% (v/v) Tween-20 in TBS (50 mM Tris, 150 mM NaCl, pH 8.0)]. Primary antibody probing was performed with anti-p21, anti-Bax, anti-CDK4, anti-cyclin D1, anti-pRb or anti-cyclin B1. All primary antibodies were obtained from New England Biolabs (Hitchin, UK) and used at a dilution of 1:1,000, unless stated otherwise. Anti-GAPDH was used as a loading control (1:2,000—New England). Following three washing steps in TTBS, horseradish peroxidase-conjugated anti-species IgG was used as the secondary antibody (Amersham Biosciences Ltd., Little Chalfont, UK). Bands were visualised by the ECL-plus detection system (Amersham).
# Bax [5] = assay: Immunoblotting analysis (Example 6.2); format: cell-based, human
# Procedure: as §4
# HCT116^poly cells = assay: MTT proliferation assay, 72 hr (Example 6.2); format: cell-based, human; conditions: Homo sapiens, HCT116^poly (polyploid extended-passage variant)
# Procedure: as §2, with “each agent” for “ATM and ART”, “μl” for “μL”, “number” for “number/proliferation”, “modifications as described previously (Gordi et al., 2004, Toxicol. Lett. 147: 99-107).” for “modifications.”
# p21^waf1cip1 = assay: Immunoblotting analysis (Example 6.1); format: cell-based, human; conditions: whole cell lysates, ~IC25, 72 hrs
# Procedure: (§5) Cells were harvested and total cellular protein was solubilised in lysis buffer (New England Biolabs, Hitchin, UK) and resolved by Tris-glycine electrophoresis using a 4-12% bis-tris gradient-gel according to the method of Laemmli (Laemmli UK. 1970. Nature, 227(5259):680-5). Following transfer of proteins to nitrocellulose membranes (0.45 μm), blocking was performed in 5% (w/v) non-fat milk in TTBS [0.5% (v/v) Tween-20 in TBS (50 mM Tris, 150 mM NaCl, pH 8.0)]. Primary antibody probing was performed with anti-p53, anti-p21, anti-Bax, anti-CDK4, anti-cyclin D1 or anti-pRb. All primary antibodies were obtained from New England Biolabs (Hitchin, UK) and used at a dilution of 1:1,000, unless stated otherwise. Anti-GAPDH was used as a loading control (1:2,000—New England). Following five washing steps in TTBS, horseradish peroxidase-conjugated anti-species IgG1 was used as the secondary antibody (Amersham Biosciences Ltd., Little Chalfont, UK). Bands were visualised by the ECL-plus detection system (Amersham).
# cyclin D1 and CDK 4 = assay: Immunoblotting analysis (Example 6.1); format: cell-based, human; conditions: whole cell lysates, equi-active (~IC25) concentrations, 72 hrs
# Procedure: as §5
# pRb = assay: Immunoblotting analysis (Example 6.1); format: cell-based, human; conditions: in each cell line (HCT116, SW480, MCF7)
# Procedure: as §5
# Bax [6] = assay: Immunoblotting analysis (Example 6.1); format: cell-based, human; conditions: immunoblotting of treated cultures
# Procedure: as §5
# [7] = tested on: HCT116, SW480 and MCF7 cells; assay: Combination with OXP at fixed ratio, nature of interaction (Example 6.1); format: cell-based, human; conditions: combined with OXP, median effect analysis
# Source text: This combination studies followed an approach previously described (Liu et al. 2008, Leuk Lymphoma, 49(9):1800-9).
# SW480 cells [8] = assay: Flow cytometric analysis of the cell cycle (Example 6.1); format: cell-based, human; conditions: SW480, equi-active (~IC25) concentration, 72 hrs
# Procedure: (§6) Cells were cultured with equi-active concentrations (˜IC25) of ART or ATM for 72 hrs, before fixing in 70% (v/v) ethanol in PBS. Following an incubation period of at least 30 mins, cells were washed and re-suspended in a DNA staining solution (1 mg/mL propidium iodide and 1 ng/mL RNAse A (both Sigma). Acquisition of data was performed within 1 h using a Becton Dickinson FACSCalibur (BD Biosciences), and gating was employed to remove doublet artefacts and to discriminate cells from debris. Ten thousand cells were analysed, and the percentages of cells in G1, S and G2/M phases were determined using the cell cycle analysis program WinMDI CellQuest v2.9 (http://facs.scripps.edu/software.html).
# MCF7 cells [9] = assay: as above; format: cell-based, human
# Procedure: as §6
# HCT116 cells [10] = assay: as above; format: cell-based, human
# Procedure: as §6
# Plasmodium falciparum = conditions: Haynes 2006; Vivas 2007; Ramharter 2006; cited from earlier work
# [11] = Nagelschmitz et al., 2008; cited from earlier work
# human cancer cell lines = assay: Trypan blue dye exclusion in parallel to MTT (Example 6.1); format: cell-based; conditions: in parallel to the MTT assay; data not shown
smiles,measurement,setting,value
"C[C@@H]1CC[C@H]2[C@@H](C)C(=O)O[C@@H]3O[C@@]4(C)CC[C@@H]1[C@]32OO4 [Artemisinin, artemisinin]",IC50,MJT3 cells,> 1000 µM
same,IC50,SW480 cells [1],156 ± 38 µM
same,IC50,"MCF7 cells [2]; Homo sapiens, MCF7, 72 h",44 ± 15 µM
same,IC50,HCT116 cells [3],204 ± 88 µM
same,IC50,KM cells,101 ± 15 µM
same,IC50,MiaPaCa3 cells,31 ± 13 µM
same,IC50,PANC1 cells,> 1000 µM
"C[C@H]1[C@H](OC(=O)CCC(=O)O)O[C@@H]2O[C@@]3(C)CC[C@H]4[C@H](C)CC[C@@H]1[C@@]24OO3 [Artesunate, artesunate]",IC50,A549 cells,9.8 ± 1.7 µM
same,IC50,MCF7 cells [4],2.3 ± 0.94 µM
same,IC50,HCT116^norm cells,1.92 ± 0.35 µM
same,cyclin B level,cyclin B; HCT116^norm cells,decrease
same,cyclin B level,cyclin B; HCT116^poly cells,increase
same,BAX level,Bax [5]; HCT116^norm cells,no effect
same,BAX level,Bax [5]; HCT116^poly cells,decrease
"Nc1ccn([C@@H]2O[C@H](CO)[C@@H](O)C2(F)F)c(=O)n1 [Gemcitabine, gemcitabine]",IC50,A549 cells,14 ± 1.6 µM
same,IC50,MCF7 cells [4],1.9 ± 0.75 µM
same,IC50,HCT116^poly cells,15 µM
"C[C@H]1[C@H](N2CCS(=O)(=O)CC2)O[C@@H]2O[C@@]3(C)CC[C@H]4[C@H](C)CC[C@@H]1[C@@]24OO3 [Artemisone, artemisone]",IC50,MJT3 cells,30 ± 26 µM
same,effect on cell number,"MJT3 cells; MJT3 cells, MTT 72 hr",significantly reduced cell number
same,IC50,SW480 cells [1],4.5 ± 1.6 µM
same,susceptibility to ATM relative to ART,"SW480 cells [1]; SW480, comparison of IC50",around 30 ×
same,IC50,"MCF7 cells [2]; Homo sapiens, MCF7, 72 h",0.5 µM
same,IC50 less for ATM than its precursor ART,MCF7 cells [2]; MCF7,around 80 fold
same,IC50,MCF7 cells [2],0.56 ± 0.17 µM
same,susceptibility to ATM relative to ART,"HCT116 cells [3]; HCT116, comparison of IC50",around 30 ×
same,IC50,HCT116 cells [3],9.5 ± 0.9 µM
same,levels of the general CDK inhibitor p21^waf1cip1,p21^waf1cip1,generally unchanged
same,levels of cyclin D1 and its associated CDK 4,cyclin D1 and CDK 4,significantly reduced
same,levels of pRb,pRb,dramatic reduction
same,pro-apoptotic protein Bax,Bax [6],no increase
same,nature of interaction with OXP,[7],additive interaction
same,apoptotic/sub-G1 phase of the cell cycle,SW480 cells [8],no increase
same,apoptotic/sub-G1 phase of the cell cycle,"MCF7 cells [9]; MCF7, equi-active (~IC25) concentration, 72 hrs",no increase
same,cell cycle effect,"MCF7 cells [9]; MCF7, ~IC25, 72 hrs",G1-selective blockade
same,cells in G1,"MCF7 cells [9]; MCF7, ~IC25, 72 hrs, untreated 63±4.40%, p=0.015",83±5.5%
same,apoptotic/sub-G1 phase of the cell cycle,"HCT116 cells [10]; HCT116, equi-active (~IC25) concentration, 72 hrs",no increase
same,"distribution of cells within the G1, S and G2 phases","HCT116 cells [10]; HCT116, ~IC25, 72 hrs",did not alter the distribution
same,activity against Plasmodium falciparum compared with other antimalarial drugs,Plasmodium falciparum,significantly more active
same,IC50,KM cells,6.4 ± 2.1 µM
same,IC50,MiaPaCa3 cells,14 ± 10 µM
same,IC50,PANC1 cells,> 1000 µM
same,impact on cell number,"PANC1 cells; p53-mutant, resistant PANC1 cell line",neither drug had an impact
same,toxicity,[11],almost negligible toxicity
same,cell viability (trypan blue dye exclusion),human cancer cell lines,did not affect cell viability
